Each structure is given as a SMILES string. Like-named read-outs stand apart in the source and are kept apart here. Bounds are passed on as bounds.

The nature of series [1]: Rat liver microsomes stability with NADPH. To be noted: for half-life at 2 μM / microsomal CLint at 2 μM: male, rat, microsomes; for Remaining Percentage (%) after 60 min, Rat: rat liver microsomes, with NADPH, 2 μM. The procedure:
The objective of this study was to estimate in vitro metabolic stability of exemplary compounds in pooled human, male rat and male mouse liver microsomes. The concentrations of exemplary compounds in reaction systems were evaluated by LC-MS/MS for estimating the stability in pooled human, male rat and male mouse liver microsomes. The in vitro intrinsic clearances of test compounds were determined as well.
A master solution in the “Incubation Plate” containing phosphate buffer, ultra-pure H2O, MgCl2 solution and liver microsomes was made according to Table 3. The mixture was pre-warmed at 37° C. water bath for 5 minutes.
40 μL of 10 mM NADPH solution was added to each well. The final concentration of NADPH was 1 mM. The negative control samples were prepared by replacing NADPH with 40 μL of ultra-pure H2O. Samples were prepared in duplicate. Negative controls were prepared in singlet.
The reaction was started with the addition of 4 μL of 200 μM exemplary test compounds or control compounds to each master solution to get the final concentration of 2 μM. This study was performed in duplicate.
Aliquots of 50 μL were taken from the reaction solution at 0, 15, 30, 45 and 60 minutes. The reaction solutions were stopped by the addition of 4 volumes of cold methanol with IS (100 nM alprazolam, 200 nM imipramine, 200 nM labetalol and 2 μM ketoprofen). Samples were centrifuged at 3,220 g for 40 minutes. Aliquot of 90 μL of the supernatant was mixed with 90 μL of ultra-pure H2O and then was used for LC-MS/MS analysis.
LC/MS analysis was performed for all samples from this study using a Shimadzu liquid chromatograph separation system equipped with degasser DGU-20A5R; solvent delivery unit LC-30AD; system controller SIL-30AC; column oven CTO-30A; CTC Analytics HTC PAL System. Mass spectrometric analysis was performed using an Triple Quad™ 5500 instrument.
All calculations were carried out using Microsoft Excel. Peak areas were determined from extracted ion chromatograms. The slope value, k, was determined by linear regression of the natural logarithm of the remaining percentage of the parent drug vs. incubation time curve.
Conversion of the in vitro t1/2 (min) into the in vitro intrinsic clearance (in vitro CLint, in μL/min/mg proteins) was done using the following equation (mean of duplicate determinations): […]
For orientation: Liver microsomes are vesicles of endoplasmic reticulum, rich in cytochrome P450 enzymes.

Series [2] in a line: In vivo pharmacokinetics in male SD rats (IV and PO). Particulars: rat; for AUC(0-inf) / C0 / clearance / AUC(0-t) / half-life / MRT inf / Vd / Cmax / Tmax / bioavailability: male, SD, plasma; for AUC(0-t): read-out: AUC0-tlast; for half-life: read-out: Apparent t1/2 (converted); for MRT inf: read-out: MRT0-inf; for Vd: read-out: Vss; for bioavailability: read-out: F (bioavailability). The procedure: Example 26: In Vivo Assessment of the Pharmacokinetics in Mice and Rats Formulations were administered intravenously (i.v.) via the tail vein or orally (p.o.) by gavage with disposable feeding needles. i. Analysis software: Phoenix® WinNonlin® 8.2 (Pharsight, Certara, Mountainview, Calif.) ii. Analysis methods: non-compartmental analysis, linear up/log down trapezoidal rule iii. PK parameters: C0, t1/2, AUC0-tlast. AUC0-∞, CL, Vss, MRT, tmax(po), Cmax(po), F, as appropriate • C0 concentration extrapolated to time zero following an i.v. dose • tmax time at which maximum concentration is observed • Cmax maximum observed concentration • Apparent t1/2 apparent terminal half-life • AUC0-tlast area under the concentration vs time curve from time 0 to the time of the last measurable concentration • AUC0-inf area under the concentration vs time curve from time 0 to infinity • CL systemic clearance • MRT0-inf mean residence time from time zero to infinity • Vss steady-state volume of distribution • F bioavailability=(Dose^iv*AUC^po)/(Dose^po*AUC^iv)*100

The next series has as its target human 5-HT2A receptor (Homo sapiens (Human), UniProt P28223). Description: Radioligand ([3H]-ketanserin) binding assay on human 5-HT2A receptor. The procedure:
i. Prepare the assay buffer following the table below;
ii. Preparation of 8 doses of reference and exemplary test compounds starting from 10 mM stock solution as requested by 5-fold serial dilutions with 100%;
iii. […] a. Add 50 μl/well of 0.5% (v/v) PEI to UniFilter-96 GF/B plates. Seal the plates and incubate at 4° C. for 3 hrs; b. After incubation, wash the plates 3 times with ice-cold wash buffer (50 mM Tris, pH7.4);
iv. Preparation of assay plates: a. Dilute cell membrane with assay buffer and add 330 μl/well to 96 round deep well plates to reach a concentration of 20 μg/well; b. Prepare 8 concentrations of reference or exemplary test compounds and add 110 μl/well to 96 round deep well plates; c. Dilute [3H]-ketanserin with assay buffer to 5 nM (5× final concentration) and add 110 μl/well to 96 round deep well plates.
v. Centrifuge the plate at 1000 rpm for 30 secs and then agitate at 600 rpm, R.T. for 5 min.
vi. Seal the plates and incubate the plate at 27° C. for 90 min.
vii. Stop the incubation by vacuum filtration onto GF/B filter plates followed by 4 times washing with ice-cold wash buffer (50 mM Tris, pH7.4).
ix. Seal the filter plates and add 40 μl/well of scintillation cocktail.
x. Read the plate by using a Microbeta2 microplate counter.
For reference and exemplary test compounds, the results are expressed as % Inhibition, using the normalization equation: N=100−100×(U−C2)/(C1−C2), where U is the unknown value, C1 is the average of high controls, and C2 is the average of low controls. The IC50 is determined by fitting percentage of inhibition as a function of compound concentrations with Hill equation using XLfit.

Usually microsomal CLint stands for the rate of metabolic loss divided by the concentration. Low values mean slow turnover, high ones rapid turnover. Broadly, the AUC(0-inf) is total exposure, with the tail of the curve extrapolated. As a reminder, the Cmax is the peak of the concentration-time curve. For orientation: Tmax means the time at which the peak concentration occurs. A word on the IC50: it is the concentration that gives 50% inhibition. Lower therefore signals higher potency. With `[2H]C([2H])([2H])N1CCC[C@@H]1Cc1c[nH]c2cccc(O)c12` [Compound I-2, (R)-3-((1-(methyl-d3)pyrrolidin-2-yl)methyl)-1H-indol-4-ol], in series [1], the half-life at 2 μM was 37.6 min; the intrinsic clearance (microsomal CLint) at 2 μM was 36.8 µL/min/mg; the “Remaining Percentage (%) after 60 min, Rat” value (“Remaining Percentage (%)” for short) is on record as 33.13%. Besides, in series [2] (IV, 0.3 mg/kg), the AUC(0-inf) was 28.7 ± 3.82 ng·h/mL, the C0 worked out at 77.4 ± 7.22 ng/mL, the clearance was 177 mL/min/kg and the AUC(0-t) came to 27.6 ± 3.27 ng·h/mL. Also, in series [2] (IV, 0.3 mg/kg), the half-life is 35.6 ± 15.7 min, the MRT inf was 36.5 ± 5.9 min, the Vd turned out to be 6.45 ± 1.4 L/kg and the AUC0-inf/Dose stood at 95.6 ± 12.7 kg·ng·h/mL/mg. Also, in series [2] (PO, 3 mg/kg), the total exposure AUC(0-inf) came out at 419 ± 56.1 ng·h/mL, the Cmax turned out to be 201 ± 50.9 ng/mL, the Tmax is 20 ± 8.64 min and the AUC(0-t) turned out to be 409 ± 46.1 ng·h/mL. Moreover, in series [2] (PO, 3 mg/kg), the half-life was 161 ± 117 min, the bioavailability was determined as 146 ± 19.5%, the MRT inf turned out to be 137 ± 34 min and the AUC0-inf/Dose turned out to be 140 ± 18.7 kg·ng·h/mL/mg. The molecule also registered a Cmax/Dose in series [2] (PO, 3 mg/kg) of 66.9 ± 17.0 kg·ng/mL/mg. The half-maximal inhibitory concentration (IC50) at human 5-HT2A receptor is under 500 nM.

On to `[2H]C([2H])(c1c[nH]c2cccc(OC)c12)[C@H]1CCCN1C([2H])([2H])[2H]` [Compound I-39, (R)-4-methoxy-3-((1-(methyl-d3)pyrrolidin-2-yl)methyl-d2)-1H-indole], for which, in series [1], the half-life at 2 μM was 12.2 min; the microsomal CLint at 2 μM stood at 113 µL/min/mg; the “Remaining Percentage (%)” value was determined as 3.34%. In series [2] (IV, 0.3 mg/kg), the AUC(0-inf) was determined as 26.5 ± 3.62 ng·h/mL, the C0 is 50.8 ± 4.63 ng/mL, the clearance was 192 mL/min/kg and the AUC(0-t) was found to be 25.9 ± 3.49 ng·h/mL. In series [2] (IV, 0.3 mg/kg), the half-life was 46 ± 2.21 min, the MRT inf is 52.9 ± 1.79 min, the Vd turned out to be 10.1 ± 1.01 L/kg and the AUC0-inf/Dose worked out at 88.3 ± 12.1 kg·ng·h/mL/mg. Besides, in series [2] (PO, 3 mg/kg), the total exposure AUC(0-inf) came out at 36.5 ng·h/mL, the concentration peaked (Cmax) at 14.8 ± 3.61 ng/mL, the Tmax was 200 ± 139 min and the AUC(0-t) was found to be 1.48 ng·h/mL. Moreover, in series [2] (PO, 3 mg/kg), the half-life was 88.8 ± 48.8 min, the bioavailability was determined as 19.6 ± 10.3%, the MRT inf is 191 min and the AUC0-inf/Dose came to 17.3 ± 9.09 kg·ng·h/mL/mg. Also, the Cmax/Dose in series [2] (PO, 3 mg/kg) amounted to 4.92 ± 1.20 kg·ng/mL/mg. This molecule yielded an IC50 on human 5-HT2A receptor of 500 to 5000 nM.

With `[2H]C([2H])(c1c[nH]c2cccc(O)c12)[C@H]1CCCN1C([2H])([2H])[2H]` [Compound I-44, (R)-3-((1-(methyl-d3)pyrrolidin-2-yl)methyl-d2)-1H-indol-4-ol], in series [1], the half-life at 2 μM turned out to be 36.5 min; the microsomal CLint at 2 μM is 38 µL/min/mg; the “Remaining Percentage (%)” value is on record as 32.00%. Further, in series [2] (IV, 0.3 mg/kg), the AUC(0-inf) is 27.3 ± 0.413 ng·h/mL, the C0 turned out to be 70.2 ± 2.67 ng/mL, the clearance is 183 mL/min/kg and the AUC(0-t) was found to be 26.4 ± 0.186 ng·h/mL. Moreover, in series [2] (IV, 0.3 mg/kg), the half-life is 25.8 ± 2.23 min, the MRT inf amounted to 31.7 ± 1.53 min, the Vd was 5.8 ± 0.196 L/kg and the AUC0-inf/Dose amounted to 91.0 ± 1.38 kg·ng·h/mL/mg. In series [2] (PO, 3 mg/kg), the AUC(0-inf) was 392 ± 109 ng·h/mL, the Cmax is 182 ± 107 ng/mL, the Tmax is 30 ± 26 min and the AUC(0-t) worked out at 384 ± 98.9 ng·h/mL. Moreover, in series [2] (PO, 3 mg/kg), the half-life is 195 ± 81.6 min, the bioavailability turned out to be 144 ± 40.1%, the MRT inf is 188 ± 91.2 min and the AUC0-inf/Dose was determined as 131 ± 36.5 kg·ng·h/mL/mg. The molecule also displayed a Cmax/Dose in series [2] (PO, 3 mg/kg) of 60.7 ± 35.5 kg·ng/mL/mg. Further, on human 5-HT2A receptor, the half-maximal inhibitory concentration (IC50) was under 500 nM.

These data come from patent US11453689B2, “3-pyrrolidine-indole derivatives as serotonergic psychedelic agents for the treatment of CNS disorders” (Mindset Pharma Inc., priority 2020, dated 2022).
